In ChEMBL document CHEMBL3045206, “A facile synthesis of novel herbicidal 1-phenyl-piperazine-2,6-diones” (2005):

How the values were obtained:
Type in all cases: functional
[1] = test system: Solanum lycopersicum; test: Herbicidal activity against Solanum lycopersicum (tomato) plant at 1200 g/ha applied as spray during post-emergence after 2 weeks under green house conditions
[2] = test system: Abutilon theophrasti; test: Herbicidal activity against Abutilon theophrasti (velvetleaf) plant at 1200 g/ha applied as spray during post-emergence after 2 weeks under green house conditions
[3] = test system: Tagetes; test: Herbicidal activity against Tagetes (marigold) plant at 1200 g/ha applied as spray during post-emergence after 2 weeks under green house conditions

Structure (SMILES) | Activity [1] | Activity [2] | Activity [3]
O=C1CN2CCCCC2C(=O)N1c1cc(Cl)c(Cl)cc1F (configuration not stated) | 75% | 90% | 0%
O=C1CN2CCCCC2C(=O)N1c1ccc(Cl)cc1F (configuration not stated) | 35% | 80% | 15%
COc1cc(N2C(=O)CN3CCCCC3C2=O)c(F)cc1Cl (configuration not stated) | 15% | 50% | 0%
O=C1CN2CCCCC2C(=O)N1c1cc(OC2CCCC2)c(Cl)cc1F (configuration not stated) | 60% | 90% | 10%
O=C1CN2CCCC2C(=O)N1c1cc(OC2CCCC2)c(Cl)cc1F (configuration not stated) | 0% | 50% | 0%
C#CCOc1cc(N2C(=O)CN(C)CC2=O)c(F)cc1Cl | 75% | 95% | 0%
CN1CC(=O)N(c2cc(OC3CCCC3)c(Cl)cc2F)C(=O)C1 | 0% | 75% | 0%
CC(C)(C)N1CC(=O)N(c2cc(OC3CCCC3)c(Cl)cc2F)C(=O)C1 | 0% | 25% | 0%
CC(C)OC(=O)c1cc(N2C(=O)CN(Cc3ccccc3)CC2=O)c(F)cc1Cl | 10% | 0% | 0%
